{"source": "patent US20260284030A1", "about": "“METHODS OF TREATING HEART FAILURE” (THE CHILDREN'S MEDICAL CENTER CORPORATION, priority 2022, published 2026)", "key": {"DBA/1 J mice with CIA [1]": {"tested_on": "DBA/1 J mice with CIA", "test": "Collagen induced arthritis (CIA) model, arthritis severity scoring", "format": "in vivo, mouse", "details": "for arthritis score: CIA mice, 10 mg/kg oral gavage once daily from day 30, n=8", "description": "(§1) DBA/1 J mice were purchased from Jackson Laboratory. All mice were kept specific pathogen free. Experimental protocols were approved by the Institutional Animal Care and Use Committee of Boston Children's Hospital (Protocol number: 20-01-4096R). To conduct a time-course study investigating onset and persistence of the cardiac dysfunction in DBA/1 J, the following groups were studied: DBA/1 J with CIA, DBA/1 J age-matched wild type, DBA/1 J with CIA treated with PAD4 inhibitor, DBA/1 J with CIA treated with 0.5% Methylcellulose (vehicle of the PAD4 inhibitor). The PAD4 specific inhibitor JBI-589 was provided by Jubilant Therapeutics (JBI-589, (R)-(3-aminopiperidin-1-yl)(2-(1-(4-fluorobenzyl)-1H-indol-2-yl)-3-methylimidazo[1,2-a]pyridin-7-yl)methanone). Mice received JBI-589 at a dose of 10 mg/kg via oral gavage for 26 consecutive days. JBI-589 was given in suspension formulation prepared using Tween-80 and 0.5% methyl cellulose. For the PAD4 inhibitor trial, mice were paired depending on their RA severity score and randomly allocated to treatment or control group. All recurring events including animal scoring and administration of inhibitor was done at similar times during the day. All groups were age and sex matched and were fed ad libitum with free access to water. All procedures conform with the NIH Guide for the Care and Use of Laboratory Animals. Experimental protocols were approved by the Institutional Animal Care and Use Committee of Boston Children's Hospital (Protocol number: 20-01-4096R).\nDBA/1 J mice aged 8-9 weeks were immunized with an emulsion of 50 μl CFA (Chondrex, Inc.; Catalog no. 7023) and 50 μl of bovine type II collagen (Chondrex, Inc.; catalog no. 20012) injected intra-dermally into the base of the tail on day 0. On day 21, a booster immunization of type II collagen with Freund's incomplete adjuvant (IFA) (catalog no. 7002; Chondrex) was administered intra-dermally at a site proximal to the first injection site. Mice were assessed for development of arthritis using the semi-quantitative, mouse arthritis scoring system provided by Chondrex (chondrex.com). […]"}, "DBA/1 J mice with CIA [2]": {"tested_on": "DBA/1 J mice with CIA", "test": "Echocardiography of LV function and geometry in CIA mice", "format": "in vivo, mouse", "details": "n=8", "description": "as §1, with “All procedures conform with the NIH Guide for the Care and Use of Laboratory Animals. Experimental protocols were approved by the Institutional Animal Care and Use Committee of Boston Children's Hospital (Protocol number: 20-01-4096R).” left out\nB-Mode, M-mode, and Doppler echocardiography were performed in DBA/1 J mice with CIA, DBA/1 J mice with CIA treated with PAD4 inhibitor or saline administration and age-matched DBA/1 J mice at day 0, day 25, day 45 and day 56 for time-course analysis of cardiac function. […] Body temperature was regulated through a heat pad and heart rate measured with an electrocardiogram, both were kept consistent between experimental groups (37° Celsius and 400-500 bpm). Echocardiography images were recorded using a Vevo-3100 imaging system with a 25-55-MHz linear probe (MX550D; VisualSonics, Toronto, Canada). Percentage of ejection fraction was calculated in parasternal long-axis view. M-mode was measured at the papillary muscle level in the short-axis view. […]"}, "DBA/1 J mice with CIA [3]": {"tested_on": "DBA/1 J mice with CIA", "test": "Immunostaining of LV cryosections (Collagen I, Ly6G/H3Cit, VWF, TGF-β, alpha smooth muscle actin)", "format": "in vivo, mouse", "description": "as §1\nCryosections of 8-μm were fixed in 4% paraformaldehyde, permeabilized with 0.1% Triton, blocked in 3% BSA, and incubated overnight at 4° C. with the following primary antibodies: Anti-Collagen I (Abcam; ab21286); anti-Ly6G (clone 1A8; BioLegend); anti-H3Cit (Abcam; ab5103); anti-CD31 (BD Pharmingen; 553370); anti-VWF (DakoCytomation; P0226); anti-CD42b (Emfret; M040-0); anti-CD45 (Abcam; ab154885); anti-TGF beta (Abcam; ab66043); anti-alpha smooth muscle actin (Abcam; ab5694), and anti-CD68 (Abcam; ab53444). […]"}, "DBA/1 J mice with CIA [4]": {"tested_on": "DBA/1 J mice with CIA", "test": "Peripheral blood counts (circulating neutrophils)", "format": "in vivo, mouse", "details": "any timepoint", "description": "as §1, with “All groups were age and sex matched and were fed ad libitum with free access to water. All procedures conform with the NIH Guide for the Care and Use of Laboratory Animals. Experimental protocols were approved by the Institutional Animal Care and Use Committee of Boston Children's Hospital (Protocol number: 20-01-4096R).” left out\nBlood was collected from anesthetized mice via the retroorbital sinus into EDTA-coated capillary tubes and was analyzed by a Hemavet 950FS (Drew Scientific) for complete blood counts. […]"}, "NET formation": {"tested_on": "NET formation", "test": "Neutrophil isolation and NETosis assay", "format": "in vivo, mouse", "details": "CIA mice; n=4; p=0.03", "description": "as §1, with “Animals. […]” for “Animals. Experimental protocols were approved by the Institutional Animal Care and Use Committee of Boston Children's Hospital (Protocol number: 20-01-4096R).”"}, "Body weight of CIA mice": {"test": "Body weight of CIA mice", "format": "in vivo, mouse", "details": "day 56, n=8", "description": "as §1, with “Animals. […]” for “Animals. Experimental protocols were approved by the Institutional Animal Care and Use Committee of Boston Children's Hospital (Protocol number: 20-01-4096R).”"}, "[5]": {"tested_on": "arthritis in a mouse model", "details": "prophylactic treatment; cited from earlier work"}, "[6]": {"tested_on": "primary tumor and metastasis", "details": "cancer; cited from earlier work"}}}
{"smiles": "Cc1c(-c2cc3ccccc3n2Cc2ccc(F)cc2)nc2cc(C(=O)N3CCC[C@@H](N)C3)ccn12", "note": "[JBI-589, (R)-(3-aminopiperidin-1-yl)(2-(1-(4-fluorobenzyl)-1H-indol-2-yl)-3-methylimidazo[1,2-a]pyridin-7-yl)methanone]", "values": [{"measurement": "arthritis score", "setting": "DBA/1 J mice with CIA [1]; Day 36", "value": "5±0.8"}, {"measurement": "arthritis score", "setting": "DBA/1 J mice with CIA [1]; day 44, median (quartiles)", "value": "9 (7-11)"}, {"measurement": "effect on RA (arthritis)", "setting": "DBA/1 J mice with CIA [1]; twice daily regime (unpublished data)", "value": "significantly inhibits RA"}, {"measurement": "diastolic function as reflected by the E/A ratio", "setting": "DBA/1 J mice with CIA [2]; CIA mice treated 26 consecutive days, 10 mg/kg once daily oral", "value": "comparable to healthy mice"}, {"measurement": "E/A ratio, higher than the placebo CIA group", "setting": "DBA/1 J mice with CIA [2]; CIA mice treated 26 consecutive days, 10 mg/kg once daily oral, p<0.0001", "value": 40, "unit": "%"}, {"measurement": "systolic left ventricular function vs vehicle", "setting": "DBA/1 J mice with CIA [2]; CIA mice treated 26 days, p=0.09", "value": "no difference"}, {"measurement": "collagen type 1 deposition in the LV, lower than the vehicle treated control", "setting": "DBA/1 J mice with CIA [3]; CIA mice treated 26 days, n=5, p=0.02", "value": 5, "unit": "times"}, {"measurement": "myofibroblast concentration (alpha-smooth-muscle actin)", "setting": "DBA/1 J mice with CIA [3]; CIA mice, n=5, p=0.02", "value": "reduced"}, {"measurement": "deposition of TGF-β in heart tissue", "setting": "DBA/1 J mice with CIA [3]; CIA mice, n=6, p=0.003", "value": "reduced"}, {"measurement": "number of circulating neutrophils vs vehicle", "setting": "DBA/1 J mice with CIA [4]", "value": "no difference"}, {"measurement": "NET formation", "setting": "NET formation", "value": "reduced"}, {"measurement": "body weight (health parameter)", "setting": "Body weight of CIA mice", "value": "improved"}, {"measurement": "effect on arthritis", "setting": "[5]", "value": "alleviates arthritis"}, {"measurement": "neutrophil recruitment", "setting": "[6]", "value": "blocking neutrophil recruitment into the primary tumor and metastasis"}]}
